Test results taken from US8809278B2, “Cyclic tetrapeptides” (University of Kansas, priority 2008, dated 2014).
“Also recorded” adds a separate entry of the source. Like-named read-outs stand apart in the source and are kept apart here. Where a SMILES comes first, the peptide text is derived from it.

What was measured:
κ opioid receptors (KOR) = assay type: binding; settings: for Ki: [3H]diprenorphine
Description: (§1) Opioid receptor affinities were determined for the cyclic tetrapeptides using Chinese hamster ovary cells stably expressing κ, μ and δ opioid receptors, and their efficacies at κ opioid receptors were determined in the adenylyl cyclase assay as previously described (Arttamangkul, et al., J. Med. Chem. 1997, 40, 1211-1218; Soderstrom, et al., Eur. J. Pharmacol. 1997, 338, 191-197). [^3H]Diprenorphine, [^3H][D-Ala^2,NMePhe^4,glyol]enkephalin and [^3H]cyclo[D-Pen^2,D-Pen^5]enkephalin were used as the radioligands in the binding assays for κ, μ and δ opioid receptors, respectively. In the adenylyl cyclase assay, the efficacies were determined by measuring the inhibition of adenylyl cyclase by 10 μM of the peptides relative to dynorphin A-(1-13) amide (100%).
(§2) The study was done using [^3H]diprenorphine, [^3][D-Ala^2,NMePhe^4,glyol]enkephalin and [^3H]cyclo[D-Pen^2,D-Pen^5]enkephalin binding to CHO membranes expressing KOR, MOR and DOR, respectively.

μ opioid receptors (MOR) = molecular target: T1, μ opioid receptors (MOR) (Rattus norvegicus, UniProt P33535); experiment: Radioligand binding, μ opioid receptor, CHO cells ([3H][D-Ala2,NMePhe4,glyol]enkephalin)
T1 construct: expressed in transfected cells
T1 sequence (P33535 whole entry): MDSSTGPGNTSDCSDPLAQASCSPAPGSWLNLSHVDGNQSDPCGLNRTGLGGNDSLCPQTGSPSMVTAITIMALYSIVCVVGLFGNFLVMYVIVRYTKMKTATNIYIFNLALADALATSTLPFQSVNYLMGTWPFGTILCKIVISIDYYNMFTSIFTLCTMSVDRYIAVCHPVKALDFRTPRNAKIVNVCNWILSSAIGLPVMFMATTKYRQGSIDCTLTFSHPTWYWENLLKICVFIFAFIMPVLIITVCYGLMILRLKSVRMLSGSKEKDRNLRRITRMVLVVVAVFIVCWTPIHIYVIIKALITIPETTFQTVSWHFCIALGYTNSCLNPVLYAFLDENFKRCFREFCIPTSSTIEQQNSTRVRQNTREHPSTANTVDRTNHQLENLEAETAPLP
Description: as §1, §2

δ opioid receptors (DOR) = molecular target: T2, δ opioid receptors (DOR) (Mus musculus, UniProt P32300); experiment: Radioligand binding, δ opioid receptor, CHO cells ([3H]cyclo[D-Pen2,D-Pen5]enkephalin)
T2 construct: expressed in transfected cells
T2 sequence (P32300 whole entry): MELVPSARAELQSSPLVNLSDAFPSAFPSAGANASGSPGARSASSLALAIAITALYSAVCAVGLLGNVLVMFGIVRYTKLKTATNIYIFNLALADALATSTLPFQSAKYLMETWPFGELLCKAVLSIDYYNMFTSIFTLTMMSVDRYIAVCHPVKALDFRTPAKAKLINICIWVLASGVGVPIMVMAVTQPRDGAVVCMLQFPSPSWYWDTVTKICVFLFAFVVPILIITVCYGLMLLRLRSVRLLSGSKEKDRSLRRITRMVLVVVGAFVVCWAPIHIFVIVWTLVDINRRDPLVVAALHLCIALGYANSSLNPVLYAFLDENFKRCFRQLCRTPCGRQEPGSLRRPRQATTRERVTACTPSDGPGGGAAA
Description: as §1, §2

κ opioid receptors = molecular target: T3, κ opioid receptors (Rattus norvegicus, UniProt P34975); experiment: Adenylyl cyclase assay (efficacy at κ opioid receptors); assay type: cell-based; settings: 10 μM peptide; relative to dynorphin A-(1-13) amide (100%)
T3 construct: expressed in transfected cells
T3 sequence (P34975 whole entry): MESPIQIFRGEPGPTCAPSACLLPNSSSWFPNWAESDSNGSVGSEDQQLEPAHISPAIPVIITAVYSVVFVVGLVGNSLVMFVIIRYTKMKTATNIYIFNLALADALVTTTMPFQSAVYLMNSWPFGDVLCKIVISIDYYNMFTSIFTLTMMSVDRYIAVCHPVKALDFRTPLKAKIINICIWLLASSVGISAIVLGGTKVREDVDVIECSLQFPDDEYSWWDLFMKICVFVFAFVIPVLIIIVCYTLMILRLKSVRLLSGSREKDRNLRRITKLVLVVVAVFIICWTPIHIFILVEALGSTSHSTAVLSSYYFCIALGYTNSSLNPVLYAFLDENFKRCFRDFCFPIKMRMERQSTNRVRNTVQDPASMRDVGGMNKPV
Description: as §1

KOR = molecular target: T4, KOR (Mus musculus, UniProt P33534); experiment: 55° C. warm-water tail-withdrawal assay, antagonism of the KOR selective agonist U50,488; assay type: in vivo; settings: for duration of KOR antagonist activity: mice, tail-withdrawal assay; for antagonism of the KOR selective agonist U50,488: tested 2-2.5 hours after peptide administration, i.c.v.
T4 construct: from tissue; host or cells: living C57Bl/6J mice (in vivo)
T4 sequence (P33534 whole entry): as the sequence (P34975 whole entry) above, with E11D, A17S, P51S, V308A counted along it
Description: (§3) An antinociceptive (analgesic) assay was performed to test the KOR agonist activity of cyclic tetrapeptides cyclo[Trp-Phe-D-Pro-Phe] […] After determining baseline tail-withdrawal latencies, mice received a single intracerebroventricular (i.c.v.) dose of vehicle (artificial cerebrospinal fluid, 146 mM NaCl, 2.7 mM KCl, 1.2 mM, CaCl2, 1.0 mM MgCl2) or a dose of test compound i.c.v. and the tail-withdrawal latency was again measured. For i.c.v. injections, each mouse was lightly anesthetized with isoflurane, an incision was made in the scalp, and the injection was made 2 mm lateral and 2 mm caudal to bregma at a depth of 3 mm directly into the lateral ventricle, as detailed previously (McLaughlin et al., 1999). The volume of these injections was 5 μl, using a 10-μl Hamilton microliter syringe. Reference agonists and antagonists were administered either subcutaneously (s.c.) or interperitoneally (i.p.) in 0.9% saline at the doses and times indicated in the figure legends (negative numbers indicate time prior to tail-withdrawal assay).
The ability of the cyclic tetrapeptides to function as KOR antagonists were studied by assessing the ability to antagonize the KOR selective agonist U50,488. […] Briefly, the antagonistic activity was tested 2-2.5 hours after peptide administration.
The duration of KOR antagonism of the cyclic tetrapeptides was studied.

C57B1/6J mice [1] = experiment: 55° C. warm-water tail-withdrawal assay, agonist (antinociceptive) activity; assay type: in vivo, mouse; settings: for agonist activity in the 55° C. warm water tail withdrawal assay: i.c.v. administration; for pattern of opioid activity in vivo: tail-withdrawal assay
Description: as §3

C57B1/6J mice [2] = experiment: Stress-induced reinstatement of cocaine conditioned place preference; assay type: in vivo, mouse; settings: 3 nmol i.c.v. 40 minutes prior to forced swim stress
Description: The establishment of cocaine conditioned place preference (CPP), extinction and stress-induced reinstatement of cocaine CPP were preformed in C57B1/6J mice as previously described (Carey, A. N.; Borozny, K.; Aldrich, J. V.; McLaughlin, J. P. Reinstatement of cocaine place-conditioning prevented by the peptide kappa-opioid receptor antagonist arodyn. Eur. J. Pharmacol. 2007, 569, 84-89). […] Place conditioning subsequently began immediately following cocaine administration (10 mg/kg s.c), whereupon mice were consistently confined for 30 min in the appropriate compartment in the CPP apparatus. Conditioning with assay vehicle (0.9% saline) followed 4 hours later in a similar manner, but paired to the opposite chamber. This conditioning cycle was repeated once on each of four days. On the fifth day, mice were again allowed to freely move through the apparatus. […]
One group of animals was then subjected to a 2-day forced swim stress protocol (with a single long swim (15 minutes) on day 1, and a series of four 6-minutes trials on day 2) to produce reinstatement of cocaine CPP. […] One hour after the final exposure to forced swim stress, the place preference responses of the mice were determined as described above to determine possible reinstatement of cocaine CPP (FIG. 6, middle panel). […]

MOR = molecular target: T5, MOR (Mus musculus, UniProt P42866); experiment: 55° C. warm-water tail-withdrawal assay, antagonism of the MOR selective agonist morphine; assay type: in vivo; settings: mice
T5 construct: from tissue; host or cells: living C57Bl/6J mice (in vivo)
T5 sequence (P42866 whole entry): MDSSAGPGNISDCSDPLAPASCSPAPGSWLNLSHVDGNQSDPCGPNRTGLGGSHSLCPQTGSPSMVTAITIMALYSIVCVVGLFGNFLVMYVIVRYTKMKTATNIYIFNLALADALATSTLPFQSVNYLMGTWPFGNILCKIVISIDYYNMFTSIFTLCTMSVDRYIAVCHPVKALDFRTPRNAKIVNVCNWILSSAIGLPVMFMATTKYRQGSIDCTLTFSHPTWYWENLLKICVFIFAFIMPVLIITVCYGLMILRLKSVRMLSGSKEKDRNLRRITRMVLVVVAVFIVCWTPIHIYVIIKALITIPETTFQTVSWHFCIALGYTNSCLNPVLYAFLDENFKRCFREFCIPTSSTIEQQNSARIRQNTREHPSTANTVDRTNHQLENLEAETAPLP
Description: as §3
(§4) The ability of JVA-2802 to selectively antagonize an opioid receptor was studied. Briefly, the antagonistic activity of JVA-2802 was studied for MOR, DOR, and KOR activity by the ability to antagonize the MOR selective agonist morphine, the DOR selective agonist SNC-80, and the KOR selective agonist U50,488.

DOR = molecular target: T6, DOR (Mus musculus, UniProt P32300); experiment: 55° C. warm-water tail-withdrawal assay, antagonism of the DOR selective agonist SNC-80; assay type: in vivo; settings: mice
T6 construct: from tissue; host or cells: living C57Bl/6J mice (in vivo)
T6 sequence (P32300 whole entry): as the sequence (P32300 whole entry) above
Description: as §3, §4

[3] = system: kappa-opioid receptor (KOR); settings: literature reports; cited from earlier work
KOR in mouse brain = molecular target: T7, KOR in mouse brain (Mus musculus, UniProt P33534); experiment: Affinity for KOR in mouse brain; assay type: binding
T7 construct: from tissue; host or cells: mouse brain
T7 sequence (P33534 whole entry): as the sequence (P34975 whole entry) above, with E11D, A17S, P51S, V308A counted along it

[4] = CHO membranes expressing KOR, read-out: KOR Ki
[5] = CHO membranes expressing MOR, read-out: MOR Ki
[6] = CHO membranes expressing DOR, read-out: DOR Ki
[7] = CHO cells stably expressing κ receptors, (n) in brackets, read-out: Ki (nM ± SEM) κ
[8] = CHO cells stably expressing δ receptors, (n) in brackets, read-out: Ki (nM ± SEM) δ
[9] = CHO cells stably expressing μ receptors, (n) in brackets, read-out: Ki (nM ± SEM) μ

Compound	Ki (κ opioid receptors (KOR); [4])	Ki (μ opioid receptors (MOR); [5])	Ki (δ opioid receptors (DOR); [6])	Cyclase screen (% control) (κ opioid receptors)	Ki (κ opioid receptors (KOR); [7])	Ki (δ opioid receptors (DOR); [8])	duration of KOR antagonist activity (KOR)	antagonism of the KOR selective agonist U50,488 (KOR)	agonist activity in the 55° C. warm water tail withdrawal assay (C57B1/6J mice [1])	Ki (μ opioid receptors (MOR); [9])	also measured
C[C@@H]1NC(=O)[C@H]2CCCN2C(=O)[C@H](Cc2ccccc2)NC(=O)[C@@H](Cc2c[nH]c3ccccc23)NC1=O [JVA 3004] (HELM PEPTIDE1{A.[dW].F.[dP]}$PEPTIDE1,PEPTIDE1,1:R1-4:R2$$$V2.0)	169 nM	186 nM	18000 nM	–	–	–	–	–	–	–	–
C[C@@H]1C(=O)N[C@@H](Cc2ccccc2)C(=O)N[C@H](Cc2c[nH]c3ccccc23)C(=O)N[C@@H](Cc2ccccc2)C(=O)N1C [JVA 3001] (HELM PEPTIDE1{F.[C[C@H](C(=O)[*:2])N(C)[*:1]].F.[dW]}$PEPTIDE1,PEPTIDE1,1:R1-4:R2$$$V2.0)	68.9 nM	58.1 nM	5690 nM	–	–	–	–	–	–	–	–
C[C@@H]1NC(=O)[C@@H](Cc2c[nH]c3ccccc23)NC(=O)[C@H](Cc2ccccc2)NC(=O)[C@H]2CCCN2C1=O [JVA-3003, cyclo[D-Trp-Ala-D-Pro-Phe]] (HELM PEPTIDE1{A.[dP].F.[dW]}$PEPTIDE1,PEPTIDE1,1:R1-4:R2$$$V2.0)	2.81 nM	27.3 nM	833 nM	75%	3.15 ± 0.41 nM	8330 ± 1220 nM	less than a day	exhibits KOR antagonist activity	can function as an agonist; also recorded: robust agonist activity	–	pattern of opioid activity in vivo (C57B1/6J mice [1]): exhibits a pattern similar to the L-Trp peptides
C[C@H]1NC(=O)[C@H](Cc2ccccc2)NC(=O)[C@H]2CCCN2C(=O)[C@H](Cc2ccccc2)NC1=O [JVA 3002]	1250 nM	774 nM	11000 nM	–	–	–	–	–	–	–	–
C[C@@H]1NC(=O)[C@H](Cc2c[nH]c3ccccc23)NC(=O)[C@H](Cc2ccccc2)NC(=O)[C@H]2CCCN2C1=O [JVA-2803, cyclo[Trp-Ala-D-Pro-Phe]] (HELM PEPTIDE1{A.[dP].F.W}$PEPTIDE1,PEPTIDE1,1:R1-4:R2$$$V2.0)	–	–	–	122%	8.03 ± 1.67 nM	8680 ± 1270 nM	less than a day	more potent than JVA-2801	can function as agonists; also recorded: more potent than JVA-2801	32.1 ± 3.9 nM	fold higher KOR affinity than the parent peptide (κ opioid receptors (KOR); relative to parent (Phe) peptide / CJ-15,208): 4 fold; fold higher MOR affinity than JVA-2801 (μ opioid receptors (MOR); relative to JVA-2801): 19 fold; antagonism of the KOR selective agonist U50,488 (KOR; listed as 2803): exhibits KOR antagonist activity; pattern of opioid activity in vivo (C57B1/6J mice [1]): exhibit both agonist activity and KOR antagonist activity
O=C1N[C@H](Cc2c[nH]c3ccccc23)C(=O)N[C@@H](Cc2ccccc2)C(=O)N2CCC[C@@H]2C(=O)N[C@H]1Cc1ccccc1 [JVA-2802, cyclo[D-Trp-Phe-D-Pro-Phe]] (HELM PEPTIDE1{F.[dP].F.[dW]}$PEPTIDE1,PEPTIDE1,1:R1-4:R2$$$V2.0)	–	–	–	127%	30.6 ± 3.4 nM	2910 ± 1350 nM	less than a day	dose-dependent antagonism	did not show any agonist activity; also recorded: did not exhibit any agonist activity	259 ± 29 nM	stress-induced reinstatement of cocaine conditioned place preference (C57B1/6J mice [2]): blocks stress-induced reinstatement; antagonism of the MOR selective agonist morphine (MOR): does not antagonize; antagonism of the DOR selective agonist SNC-80 (DOR): does not antagonize
CC(C)[C@@H](CN1CC[C@@](C)(c2cccc(O)c2)[C@@H](C)C1)NC(=O)[C@H]1Cc2ccc(O)cc2CN1 [JDTic]	–	–	–	–	–	–	–	–	–	–	stress-induced reinstatement of cocaine-seeking behavior [3]: block stress-induced reinstatement
O=C1N[C@@H](Cc2ccccc2)C(=O)N2CCC[C@@H]2C(=O)N[C@@H](Cc2ccccc2)C(=O)N[C@H]1Cc1c[nH]c2ccccc12 [JVA-2801, cyclo[Trp-Phe-D-Pro-Phe]] (HELM PEPTIDE1{F.W.F.[dP]}$PEPTIDE1,PEPTIDE1,1:R1-4:R2$$$V2.0)	–	–	–	119%	35.4 ± 3.6 nM	4150 ± 3020 nM	–	dose-dependent antagonism	can function as agonists; also recorded: robust agonist activity	619 ± 87 nM	reversal of agonist activity by the KOR selective antagonist nor-BNI (C57B1/6J mice [1]; i.c.v. peptide): partially reversed; reversal of agonist activity by the MOR selective antagonist β-FNA (C57B1/6J mice [1]; i.c.v. peptide): completely reversed; Ki (KOR in mouse brain): ~21 nM
